According to US20240343733A1, “COMPOUNDS FOR TARGETING DEGRADATION OF IRAK4 PROTEINS” (BIOGEN MA INC., priority 2021, published 2024):
Where two headings read alike, the source gives them in different places.

Experiment: Pharmacokinetics in Male Cynomolgus Monkeys
Assay type: in vivo
Conditions: cynomolgus monkey, plasma; for Vd: read-out: Vdss
Description: Assay 5. Pharmacokinetics in Male Cynomolgus Monkeys
The pharmacokinetic (PK) profile in plasma of two compounds of the present invention was determined in male cynomolgus monkeys following single dose IV (5 mg/kg) and PO (10 mg/kg) administration. This study was performed under non-GLP conditions, and unless otherwise stated, all analytical reagents were standard laboratory reagent grade. The study was conducted in accordance with IACUC guidelines in compliance with the Animal Welfare Act, the Guide for the Care and Use of Laboratory Animals.
Male cynomolgus monkeys, non-naïve, are acceptable species to support PK studies for compounds intended for use in humans. The animals were supplied by Hainan Jingang Laboratory Animal Co. Ltd (Nayangxintan Fucheng Town, Qiongshan District, Haikou Hainan Province, P.R. China) or another qualified source. During in-life, the animals were individually housed in stainless-steel mesh cages that are in accordance with the National Research Council “Guide for the Care and Use of Laboratory Animals”. Animals were fed twice daily with approximately 120 g of certified monkey diet. These amounts were adjusted as necessary based on food consumption of the group or an individual body weight changes of the group or an individual and/or changes in the certified diet. In addition, animals received fruit daily as nutritional enrichment and reverse osmosis (RO) water was available to all animals, ad libitum. RO water was analyzed every three months and every batch of feed was analyzed before using. Feed and water analyses records were maintained in the facility records. The room(s) were controlled and monitored for relative humidity range of 40-70% (any excursion from this range for more than 3 hours was documented as a deviation) and temperature range of 18-26° C. (any excursion from this range was documented as a deviation) with 10 to 20 air changes/hour. The room was on a 12-hour light/dark cycle except when interruptions were necessitated by study activities. Normal healthy animals weighing >2 kg and age ≥2 years old were selected for studies. The monkeys were identified by a unique skin tattoo on chest.
2-[4-[[4-[1-(2,6-dioxo-3-piperidyl)-3-methyl-2-oxo-benzimidazol-5-yl]-1-piperidyl]methyl]cyclohexyl]-7-isopropoxy-N-pyrazolo[1,5-a]pyrimidin-3-yl-imidazo[1,2-a]pyridine-6-carboxamide, as described in Example 48 (“Compound 48”), and 2-((1R,4S)-4-((4-(1-(2,6-dioxopiperidin-3-yl)-3-methyl-2-oxo-2,3-dihydro-1H-benzo[d]imidazol-5-yl)piperidin-1-yl)methyl)cyclohexyl)-N-(1-((1S,2R)-2-fluorocyclopropyl)-2-oxo-1,2-dihydropyridin-3-yl)-7-isopropoxyimidazo[1,2-a]pyridine-6-carboxamide, as described in Example 169 (“Compound 169”), were each formulated by dissolving the compound in polyethylene glycol (PEG400) (10%) with stirring, followed by the slow addition of 11.11% 2-Hydroxypropyl-beta-cyclodextrin (HPβCD) (90%) in water. Vehicle dose was PEG400 (10%) and 11.11% HP-β-CD (90%) in water. Formulations and vehicle were freshly prepared on of the day of dosing and stored at room temperature until used.
All animals were weighed prior to drug administration. The animals were divided into intravenous (IV) group and per os (PO) group for each compound tested, with 3 animals in each group. The vehicle dosing group included IV and PO groups, making a total of 6 groups of 3 animals each, for 18 animals total. The IV dose was administered by intravenous bolus injection into the cephalic or saphenous vein. The vein used for the dosing was not used for blood sample collection for the first 4 hours post dose. The PO dose was administered by nasogastric tube. The nasogastric PO doses were flushed using 3 mL of vehicle (approximately 3 times volume of nasogastric tube). […] The dosing volume was 2.5 mL/kg for the IV groups and 5 mL/kg for the PO groups. The dosing concentration was 2 mg/mL for both IV and PO groups. Feeding conditions were overnight fasting for PO group but not for IV group. […]

| AUC(0-t) (5 mg/kg IV, mean) [ng·h/mL] | C0 (5 mg/kg IV, mean) [ng/mL] | clearance (5 mg/kg IV, mean) [mL/min/kg] | half-life (5 mg/kg IV, mean) [h] | Vd (5 mg/kg IV, mean) [L/kg] | AUC(0-t) (10 mg/kg PO, mean) [ng·h/mL] | Cmax (10 mg/kg PO, mean) [ng/mL] | bioavailability (10 mg/kg PO, mean) [%] | AUC(0-t) (5 mg/kg IV, mean (Table 11)) [ng·h/mL] | C0 (5 mg/kg IV, mean (Table 11)) [ng/mL] | clearance (5 mg/kg IV, mean (Table 11)) [mL/min/kg] | half-life (5 mg/kg IV, mean (Table 11)) [h] | Vd (5 mg/kg IV, mean (Table 11)) [L/kg] | AUC(0-t) (10 mg/kg PO, mean (Table 12)) [ng·h/mL] | Cmax (10 mg/kg PO, mean (Table 12)) [ng/mL] | bioavailability (10 mg/kg PO, mean (Table 12)) [%] | SMILES |
| --- | --- | --- | --- | --- | --- | --- | --- | --- | --- | --- | --- | --- | --- | --- | --- | --- |
| 1740 | 5970 | 48.6 | 44.2 | 70.3 | 84.3 | 18.3 | 2.42 |  |  |  |  |  |  |  |  | CC(C)Oc1cc2nc([C@H]3CC[C@H](CN4CCC(c5ccc6c(c5)n(C)c(=O)n6C5CCC(=O)NC5=O)CC4)CC3)cn2cc1C(=O)Nc1cnn2cccnc12 (stereo partly shown) [Compound 48, 2-[4-[[4-[1-(2,6-dioxo-3-piperidyl)-3-methyl-2-oxo-benzimidazol-5-yl]-1-piperidyl]methyl]cyclohexyl]-7-isopropoxy-N-pyrazolo[1,5-a]pyrimidin-3-yl-imidazo[1,2-a]pyridine-6-carboxamide] |
|  |  |  |  |  |  |  |  | 4680 | 10300 | 17 | 44.3 | 32.6 | 1020 | 101 | 10.8 | CC(C)Oc1cc2nc([C@H]3CC[C@H](CN4CCC(c5ccc6c(c5)n(C)c(=O)n6C5CCC(=O)NC5=O)CC4)CC3)cn2cc1C(=O)Nc1cccn([C@H]2C[C@H]2F)c1=O (stereo partly drawn) [Compound 169, 2-((1R,4S)-4-((4-(1-(2,6-dioxopiperidin-3-yl)-3-methyl-2-oxo-2,3-dihydro-1H-benzo[d]imidazol-5-yl)piperidin-1-yl)methyl)cyclohexyl)-N-(1-((1S,2R)-2-fluorocyclopropyl)-2-oxo-1,2-dihydropyridin-3-yl)-7-isopropoxyimidazo[1,2-a]pyridine-6-carboxamide] |
